Experimental data taken from a melting point compilation (Tetko et al.; mined from patent text by program, amines drawn as free bases though some values may be those of a salt).

Row | melting point [°C] | SMILES
1 | 178 to 189 | Nc1ncc(-c2cccs2)nc1C(=O)Nc1cccnc1
2 | 135 to 136 | C=CCOc1ccc(Cl)c2c(=O)c3ccccc3sc12
3 | 154 to 155 | CSc1cc2c(cc1C(F)(F)F)N(C(=O)Nc1cccc(-c3csc(-c4cccnc4)n3)c1)CC2
4 | 158 | OC(CN1CCNC1=S)c1cc(Cl)cc(Cl)c1 (configuration not stated)
5 | 162 to 166 | CC(Oc1ccc(Cl)cc1)c1nnc(N)s1 (configuration not stated)
6 | 165 to 167 | COc1cccc(CNC(=O)c2cc3c(=O)n(CCOc4ccc(Br)cc4)c(=O)n(C)c3s2)c1
7 | 155 to 156 | CCOC(=O)c1nc2scc(COCc3ccccc3)c2c(=O)[nH]1
8 | 112 to 114 | CC(=O)c1cc(S(=O)(=O)c2ccccc2)ccc1OC[C@@H]1CO1
9 | 131 to 133 | CCCCc1oc2ccccc2c1C(=O)Nc1ccc2cc(OCC(=O)OC)ccc2c1
10 | 111 to 112 | Cc1cc2ccccc2c(-c2ccccc2I)n1
11 | 131 to 132 | Cc1cc(C(F)(F)F)nc(-c2ccc(O)cc2)n1
12 | 244 to 247 | Cc1nc(C)n(-c2cc(C)c3[nH]c(=O)ccc3c2)c1[N+](=O)[O-]
13 | 181 | CCNCCC(=O)Nc1ccc2c(c1)C(=O)c1cc(NC(=O)CCNCC)ccc1C2=O
14 | 80 to 81 | OCCOCCn1c2ccccc2c2ccccc21
15 | 132 to 134 | COC(=O)c1cc(-c2ccccc2)c(=O)n2c1-c1sccc1CN2C(C)=O
16 | 89 to 90 | COc1ccc(-c2nc(Cn3ccnc3)cs2)cc1
17 | 154 to 156 | CC12CCC3c4ccc(O)cc4CCC3(C=C(F)F)C1CCC2O (configuration not stated)
18 | 58 to 61 | CCOC(=O)c1c(Sc2ccccc2)cc(C(F)(F)F)nc1C(F)(F)F
19 | 148 to 150 | Cc1cc(N)n(-c2ccc(Cl)nn2)n1
20 | 149 to 151 | Cc1ccc(S(=O)(=O)n2ccnc2C(O)(c2ccc(F)cc2)c2ccc(F)cc2)cc1
21 | 163 to 166 | COC(=O)C1=C(C)Nc2c(c(C)nn2C)C1c1cccc([N+](=O)[O-])c1 (configuration not stated)
22 | 208 to 209 | COc1ccccc1Cc1c(N)nc(SCCCN2CCN(C(C)=O)CC2)nc1N
23 | 167 | COc1ccc(C(=O)c2c(C)oc3ccc([N+](=O)[O-])cc23)cc1

Row | melting point [°C] | SMILES
24 | 211 | OC1CSC(Oc2cncc(-c3ccc(Cl)nc3)c2)C(O)C1O (configuration not stated)
25 | 184 | CC(=O)Nc1ccc(C(=O)CBr)cc1F
26 | 159 to 165 | CCOC(=O)c1cc(=O)c2c(OCC(O)COc3cccc(O)c3C(=O)C=CN(C)C)cccc2o1 (configuration not stated)
27 | 108 to 110 | c1cc2nnnn2cc1C1CO1 (configuration not stated)
28 | 195 to 196 | CC(=O)Oc1c(C(C)C)cc(C(=O)Nc2cnc3c(C)cc(C)cc3c2-c2ccccc2Cl)cc1C(C)C
29 | 110 to 112 | CCNC(=O)c1c(C)cccc1C(C)(C)C
30 | 184 | CC(C)[C@H](NC(=O)OCc1ccccc1)C(=O)NC(Cc1ccccc1)C(O)C(Cc1ccccc1)NC(=O)[C@@H](NC(=O)OC(C)(C)C)C(C)C (some centres not stated)
31 | 76 to 77 | CC1=CC(=O)C(C)(N=Nc2ccc3ccccc3c2)O1 (configuration not stated)
32 | 199 to 201 | COc1cc(Nc2c(C#N)cnc3cc(F)ccc23)c(Cl)cc1Cl
33 | 85 to 86 | O=C(O)Cc1cccc(-c2ccccc2OC2OC(CO)C(O)C(O)C2O)c1 (configuration not stated)
34 | 219 to 220 | CC(C)(/C=C/c1ccc(C(=O)O)cc1)c1ccc2c(c1)C(C)(C)CCC2(C)C
35 | 114 | CC(C)c1cc2c(cc1C(CC(=O)O)c1ccccc1)OCO2 (configuration not stated)
36 | 135 to 140 | O=C(O)CCCCNS(=O)(=O)c1ccc(N2CCCCCC2)cc1
37 | 65 to 66 | Cc1cc(C)cc(C(=O)OC2CCCCC2=O)c1 (configuration not stated)
38 | 234 to 236 | O=c1[nH]c2cc([N+](=O)[O-])cnc2n1-c1ccccc1F
39 | 47 to 52 | COc1ccc(OC)c(-c2ccc(C(C)=NOCCOc3ccc(CC4SC(=O)NC4=O)cc3)cc2)c1 (configuration not stated)
40 | 105 to 106 | CCOC(=O)NNS(=O)(=O)c1ccc(C)cc1
41 | 181 to 183 | CCc1cc(Cl)cc2c1NC(C)NS2(=O)=O (configuration not stated)
42 | 138 | COC(=O)c1cc([N+](=O)[O-])c(N2CCSC2=N)c([N+](=O)[O-])c1
43 | 113 to 114 | COc1cc(C(=O)c2c(N)sc3c2CCN(Cc2ccccc2)C3)ccc1OC(C)C
44 | 63 to 65 | Cc1nc2cc(OCCCCl)ccc2s1
45 | 155 to 157 | CCC1c2[nH]c3ccccc3c2CC(C(=O)O)N1C(=S)SC (configuration not stated)
46 | 90 to 95 | Cc1cc(C(O)(COc2ccc(Cl)cc2)C(F)(F)F)ccc1NC(=O)c1cccc(I)c1C(=O)NC(C)C (configuration not stated)

Row | melting point [°C] | SMILES
47 | 200 to 202 | CCCCOC(=O)c1cc(OC(=O)OC)c2c(c1)C(=O)c1cccc(OC(=O)OC)c1C2=O
48 | 148 to 150 | CCC1=Nc2c(C)nn(C)c2C2=NCCN12
49 | 206 to 208 | CC(C)(C)OC(=O)NCCNc1n[nH]c2ncnc(Nc3cccc(Cl)c3)c12
50 | 211 to 212 | CCS(=O)(=O)CCC(=O)NNC(=O)N1Cc2ccccc2Oc2ccc(NS(C)(=O)=O)cc21
51 | 289 | N#Cc1cnc(Nc2ccc(F)cc2)nc1-c1ccc(N)nc1
52 | 216 to 220 | CC(=O)NC[C@H]1CN(c2ccc(C(=O)c3cnc4cnc(Br)cn34)cc2)C(=O)O1
53 | 264 to 266 | CC(=O)OCC(=O)C12OCOC1CC1C3CCC4=CC(=O)CCC4(C)C3(F)C(O)CC12C (configuration not stated)
54 | 238 to 239 | Cc1ccc(NS(=O)(=O)c2ccc(N3CCNC3=O)cc2)c(C)c1
55 | 108 to 119 | CC(=O)OC1Cc2ccccc2N(C#N)c2ccccc21 (configuration not stated)
56 | 131 to 133 | Nc1cc(Cl)ccc1C(=O)NO
57 | 184 to 185 | CCN(CC)CC1CCCN(CCNC(=O)N2c3ccccc3C(=O)Nc3cccnc32)C1 (configuration not stated)
58 | 136 to 137 | CC(C)(CCCN)C(Cc1c[nH]c([N+](=O)[O-])n1)=NO
59 | 158 to 160 | CCc1nnc(CCCOc2c(C)cc(N)c(C=NO)c2C)s1
60 | 117 to 120 | CNC(=O)C(C(=O)NC(Cc1ccccc1)C(O)CNCC(O)C(Cc1ccccc1)NC(=O)OC(C)(C)C)C(C)(C)C (configuration not stated)
61 | 96 to 97 | CC(O)c1ccc(Cc2ccccc2CO)cc1 (configuration not stated)
62 | 198 to 201 | Nc1nc(SCc2ccccc2)nn1-c1nnc(-c2ccccc2O)s1
63 | 129 to 130 | c1ccc(Oc2ccc(C3(Cn4cncn4)OCCCO3)cc2)cc1
64 | 236 to 242 | Cc1cc2c(=O)c(C(=O)O)cn(-c3cc(N)c(F)cc3F)c2c([N+](=O)[O-])c1F
65 | 207 to 213 | CN1C(=O)CN(c2ccccc2)NC1=O
66 | 195 to 196 | CC(C(N)=O)c1ccc2c(c1)C(=O)Cc1c(Cl)cccc1S2 (configuration not stated)
67 | 150 to 151 | COc1c(CNS(=O)(=O)c2ccc(C)cc2)ccc2c1OCO2
68 | 94 | Clc1ccc(C2(c3ccc4nccc(CCc5ccc(Cl)s5)c4c3)OCCO2)cc1

Row | SMILES | melting point [°C]
69 | N#Cc1ccc(C(=O)N2CCC3(CC2)OCCO3)cn1 | 133 to 135
70 | CCC(=O)C1(Nc2ccccc2)CCN(CCc2cccs2)CC1 | 127
71 | Cc1cc2c(cc1-c1ccc(C=O)s1)C(C)(C)CCC2(C)C | 130 to 135
72 | BrCc1ccc2ccccc2n1 | 33 to 37
